Data taken from patent publication US20160002204A1 (Board of Regents, The University of Texas System, priority 2014, published 2016).

Legend:
[1] = test system: A549 cells; test: A549 proliferation (viability) assay, Cell Titer Fluor, 72 hours; assay type: cell-based; conditions: Homo sapiens
Outline: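 Compound exposure lasted 72 h (final DMSO 0.5% v/v) on A549 cells plated at 1000 cells/well one day earlier. Cell Titer Fluor added, 30 min at 37 °C, fluorescence read; EC50 derived by four-parameter logistic curve fitting.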

[2] = molecular target: T1, GLS1 (purified recombinant human GAC) (Homo sapiens, UniProt O94925); test: GLS1 enzymatic activity assay (dual-coupled, Amplex UltraRed/resorufin); assay type: biochemical
T1 sequence (O94925 55-598 isoform O94925-3 limits assumed): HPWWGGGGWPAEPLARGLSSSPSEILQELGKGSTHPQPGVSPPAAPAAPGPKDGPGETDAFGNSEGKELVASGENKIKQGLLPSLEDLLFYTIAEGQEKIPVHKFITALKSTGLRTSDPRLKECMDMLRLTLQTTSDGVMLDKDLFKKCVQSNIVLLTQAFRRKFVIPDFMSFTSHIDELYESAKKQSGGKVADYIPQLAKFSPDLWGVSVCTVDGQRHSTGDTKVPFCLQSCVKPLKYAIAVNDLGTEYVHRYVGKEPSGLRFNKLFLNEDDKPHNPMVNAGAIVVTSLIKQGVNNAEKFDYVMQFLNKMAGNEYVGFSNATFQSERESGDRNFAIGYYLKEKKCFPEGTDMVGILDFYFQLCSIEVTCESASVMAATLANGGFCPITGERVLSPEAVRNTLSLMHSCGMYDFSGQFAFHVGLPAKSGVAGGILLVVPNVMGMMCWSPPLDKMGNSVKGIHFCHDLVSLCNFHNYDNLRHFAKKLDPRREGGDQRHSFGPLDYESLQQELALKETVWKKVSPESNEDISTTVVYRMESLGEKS
Outline: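 GAC activity measured by coupling glutamate to glutamate oxidase and HRP, generating resorufin from Amplex UltraRed. Enzyme (2 nM) preincubated with 50 mM potassium phosphate 10 min at room temperature, then inhibitor 10 min; 1 mM glutamine substrate, 1% DMSO. Fluorescence 530/590 nm, kinetic or 20-min endpoint; IC50 from four-parameter logistic fit.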

Row | Structure (SMILES) | EC50 [1] | IC50 [2]
1 | CNC(=O)c1ccn(CCCCn2cc(C(=O)NCc3cccc(OC(F)(F)F)c3)nn2)c(=O)c1 [Example 58, N-methyl-2-oxo-1-{4-[4-({[3-(trifluoromethoxy)phenyl]methyl}carbamoyl)-1H-1,2,3-triazol-1-yl]butyl}-1,2-dihydropyridine-4-carboxamide] | > 5000 nM | 500 to 5000 nM
2 | O=C(Cc1cccc(OC(F)(F)F)c1)Nc1ccc(CCCCn2ccc(NC(=O)[C@H](O)c3ccccc3)nc2=O)nn1 [Example 101, (2R)-2-hydroxy-N-{2-oxo-1-[4-(6-{2-[3-(trifluoro-methoxy)phenyl]acetamido}pyridazin-3-yl)butyl]-1,2-dihydropyrimidin-4-yl}-2-phenylacetamide] | 100 to 500 nM | < 100 nM
3 | O=C(Cc1ccccc1)Nc1ccn(CC(F)CCn2cc(C(=O)NCc3cccc(OC(F)(F)F)c3)nn2)c(=O)c1 (stereo not shown) [Example 144, 1-{3-fluoro-4-[2-oxo-4-(2-phenylacetamido)-1,2-dihydropyridin-1-yl]butyl}-N-{[3-(trifluoromethoxy)phenyl]methyl}-1H-1,2,3-triazole-4-carboxamide] | < 100 nM | < 100 nM
4 | COc1cccc(CC(=O)Nc2ccn(CCC(F)Cn3cc(C(=O)NCc4cccc(OC(F)(F)F)c4)nn3)c(=O)c2)n1 (stereo not shown) [Example 251, 1-(2-fluoro-4-{4-[2-(6-methoxypyridin-2-yl)acetamido]-2-oxo-1,2-dihydropyridin-1-yl}butyl)-N-{[3-(trifluoromethoxy)phenyl]methyl}-1H-1,2,3-triazole-4-carboxamide] | 100 to 500 nM | < 100 nM
5 | Cc1ccc(CNC(=O)c2cn(CC(F)CCn3ccc(NC(=O)Cc4ccccc4)c(F)c3=O)nn2)cn1 (stereo not shown) [Example 307, 1-{2-fluoro-4-[3-fluoro-2-oxo-4-(2-phenylacetamido)-1,2-dihydropyridin-1-yl]butyl}-N-[(6-methylpyridin-3-yl)methyl]-1H-1,2,3-triazole-4-carboxamide] | 100 to 500 nM | < 100 nM
6 | O=C(Cc1ccccc1)Nc1nnc(CCCCn2ccc(NC(=O)[C@H](O)c3ccccc3)nc2=O)s1 [Example 84, (2R)-2-hydroxy-N-(2-oxo-1-{4-[5-(2-phenylacetamido)-1,3,4-thiadiazol-2-yl]butyl}-1,2-dihydropyrimidin-4-yl)-2-phenylacetamide] | > 5000 nM | < 100 nM
7 | O=C(Nc1ccn(CCCCn2cc(C(=O)NCc3ccccn3)nn2)c(=O)c1)OCc1ccccc1 [Example 57, benzyl N-[2-oxo-1-(4-{4-[(pyridin-2-ylmethyl)carbamoyl]-1H-1,2,3-triazol-1-yl}butyl)-1,2-dihydropyridin-4-yl]carbamate] | 500 to 5000 nM | 100 to 500 nM
8 | O=C(NCc1cc(C(F)(F)F)ccn1)c1cn(CC(F)CCn2ccc(Cn3ccccc3=O)cc2=O)nn1 (stereo not shown) [Example 494, 1-(2-fluoro-4-{2-oxo-4-[(2-oxo-1,2-dihydropyridin-1-yl)methyl]-1,2-dihydropyridin-1-yl}butyl)-N-{[4-(trifluoromethyl)pyridin-2-yl]methyl}-1H-1,2,3-triazole-4-carboxamide] | > 5000 nM | 500 to 5000 nM
9 | Cc1ccc(CNC(=O)c2nnc(CCCCn3ccc(NC(=O)CC4CCCCC4)cc3=O)s2)cn1 [Example 443, 5-{4-[4-(2-cyclohexylacetamido)-2-oxo-1,2-dihydropyridin-1-yl]butyl}-N-[(6-methylpyridin-3-yl)methyl]-1,3,4-thiadiazole-2-carboxamide] | < 100 nM | < 100 nM
10 | O=C(Cc1ccccn1)Nc1ccn(CCC(F)Cn2cc(C(=O)NCc3cc(OC(F)(F)F)ccc3F)nn2)c(=O)c1 (stereo not shown) [Example 182, 1-(2-fluoro-4-{2-oxo-4-[2-(pyridin-2-yl)acetamido]-1,2-dihydropyridin-1-yl}butyl)-N-{[2-fluoro-5-(trifluoromethoxy)phenyl]methyl}-1H-1,2,3-triazole-4-carboxamide] | 100 to 500 nM | < 100 nM
11 | O=C(Nc1ccn(CCC(F)Cn2cc(C(=O)NCc3cc(OC(F)(F)F)ccc3F)nn2)c(=O)c1F)C(=O)N1CCC[C@H](C(F)(F)F)C1 (mixture of isomers) [Example 435] | < 100 nM | < 100 nM
12 | CC(C)(C)CC(=O)Nc1ccn(CCC(F)Cn2cc(C(=O)NCc3cccc(OC(F)(F)F)c3)nn2)c(=O)c1F (stereo not shown) [Example 340, 1-{4-[4-(3,3-dimethylbutanamido)-3-fluoro-2-oxo-1,2-dihydropyridin-1-yl]-2-fluorobutyl}-N-{[3-(trifluoromethoxy)phenyl]methyl}-1H-1,2,3-triazole-4-carboxamide] | < 100 nM | < 100 nM
13 | Cc1ccc(CC(=O)Nc2ccn(CCC(F)Cn3cc(C(=O)NCc4cccc(OC(F)(F)F)c4)nn3)c(=O)c2)cn1 (stereo not shown) [Example 248, 1-(2-fluoro-4-{4-[2-(6-methylpyridin-3-yl)acetamido]-2-oxo-1,2-dihydropyridin-1-yl}butyl)-N-{[3-(trifluoromethoxy)phenyl]methyl}-1H-1,2,3-triazole-4-carboxamide] | 500 to 5000 nM | < 100 nM
14 | Cc1ccc(CNC(=O)c2cn(CC(F)CCn3ccc(NC(=O)CC4CCCC4)cc3=O)nn2)cn1 (stereo not shown) [Example 199, 1-{4-[4-(2-cyclopentylacetamido)-2-oxo-1,2-dihydropyridin-1-yl]-2-fluorobutyl}-N-[(6-methylpyridin-3-yl)methyl]-1H-1,2,3-triazole-4-carboxamide] | < 100 nM | < 100 nM
15 | Cc1ccc(CNC(=O)c2nnc(CCCCn3ccc(NC(=O)Cc4ccccc4)cc3=O)s2)cn1 [Example 441, N-[(6-methylpyridin-3-yl)methyl]-5-{4-[2-oxo-4-(2-phenylacetamido)-1,2-dihydropyridin-1-yl]butyl}-1,3,4-thiadiazole-2-carboxamide] | 500 to 5000 nM | < 100 nM
16 | O=C(CC1CCCC1)Nc1ccn(CCC(F)Cn2cc(C(=O)NCc3ccc(C(F)(F)F)nc3)nn2)c(=O)c1F (stereo not shown) [Example 369, 1-{4-[4-(2-cyclopentylacetamido)-3-fluoro-2-oxo-1,2-dihydropyridin-1-yl]-2-fluorobutyl}-N-{[6-(trifluoromethyl)pyridin-3-yl]methyl}-1H-1,2,3-triazole-4-carboxamide] | < 100 nM | < 100 nM
17 | O=C(Nc1ccn(CCC(F)Cn2cc(C(=O)NCc3ccc(C(F)(F)F)nc3)nn2)c(=O)c1F)OC1CCC1 (stereo not shown) [Example 399, cyclobutyl N-(3-fluoro-1-{3-fluoro-4-[4-({[6-(trifluoromethyl)pyridin-3-yl]methyl}carbamoyl)-1H-1,2,3-triazol-1-yl]butyl}-2-oxo-1,2-dihydropyridin-4-yl)carbamate] | 100 to 500 nM | 100 to 500 nM
18 | CC1(C)CN(C(=O)C(=O)Nc2ccn(CCC(F)Cn3cc(C(=O)NCc4cccc(OC(F)(F)F)c4)nn3)c(=O)c2F)C1 (stereo not shown) [Example 428, 1-(4-{4-[2-(3,3-dimethylazetidin-1-yl)-2-oxoacetamido]-3-fluoro-2-oxo-1,2-dihydropyridin-1-yl}-2-fluorobutyl)-N-{[3-(trifluoromethoxy)phenyl]methyl}-1H-1,2,3-triazole-4-carboxamide] | < 100 nM | < 100 nM
19 | Cn1cc(CC(=O)Nc2ccn(CCCCn3cc(C(=O)NCc4cccc(OC(F)(F)F)c4)nn3)c(=O)c2)cn1 [Example 46, 1-(4-{4-[2-(1-methyl-1H-pyrazol-4-yl)acetamido]-2-oxo-1,2-dihydropyridin-1-yl}butyl)-N-{[3-(trifluoromethoxy)phenyl]methyl}-1H-1,2,3-triazole-4-carboxamide] | > 5000 nM | 100 to 500 nM
20 | CC(C)(C)OC(=O)Nc1ccn(CCC(F)Cn2cc(C(=O)NCc3cncc(C(F)(F)F)c3)nn2)c(=O)c1F (stereo not shown) [Example 330, tert-butyl N-(3-fluoro-1-{3-fluoro-4-[4-({[5-(trifluoromethyl)pyridin-3-yl]methyl}carbamoyl)-1H-1,2,3-triazol-1-yl]butyl}-2-oxo-1,2-dihydropyridin-4-yl)carbamate] | 100 to 500 nM | < 100 nM
21 | O=C(Cc1cccc(OC(F)(F)F)c1)Nc1ccc(CCCCn2ccc(NC(=O)[C@@H](O)c3ccccc3)nc2=O)nn1 [Example 78, (2S)-2-hydroxy-N-{2-oxo-1-[4-(6-{2-[3-(trifluoro-methoxy)phenyl]acetamido}pyridazin-3-yl)butyl]-1,2-dihydropyrimidin-4-yl}-2-phenylacetamide] | < 100 nM | < 100 nM
22 | Cc1ccc(CNC(=O)c2cn(CC(F)CCn3ccc(NC(=O)CC4CCCC4)c(F)c3=O)nn2)cn1 (stereo not shown) [Example 303, 1-{4-[4-(2-cyclopentylacetamido)-3-fluoro-2-oxo-1,2-dihydropyridin-1-yl]-2-fluorobutyl}-N-[(6-methylpyridin-3-yl)methyl]-1H-1,2,3-triazole-4-carboxamide] | < 100 nM | < 100 nM
23 | O=C(CC1CCCCO1)Nc1ccn(CCC(F)Cn2cc(C(=O)NCc3cc(Cl)ccc3F)nn2)c(=O)c1 (stereo not shown) [Example 215, N-[(5-chloro-2-fluorophenyl)methyl]-1-(2-fluoro-4-{4-[2-(oxan-2-yl)acetamido]-2-oxo-1,2-dihydropyridin-1-yl}butyl)-1H-1,2,3-triazole-4-carboxamide] | 100 to 500 nM | < 100 nM
